In patent US20240166641A1, “HETEROCYCLES AND USES THEREOF” (Kumquat Biosciences Inc., priority 2021, published 2024):

Legend:
PTP1B = molecular target: T1, PTP1B (Homo sapiens, UniProt P18031); assay: Phosphatase activity assay (Bio-Biochem-DiFMUP), PTP1B; assay type: biochemical; conditions: DiFMUP substrate, room temperature
T1 sequence (P18031 1-435): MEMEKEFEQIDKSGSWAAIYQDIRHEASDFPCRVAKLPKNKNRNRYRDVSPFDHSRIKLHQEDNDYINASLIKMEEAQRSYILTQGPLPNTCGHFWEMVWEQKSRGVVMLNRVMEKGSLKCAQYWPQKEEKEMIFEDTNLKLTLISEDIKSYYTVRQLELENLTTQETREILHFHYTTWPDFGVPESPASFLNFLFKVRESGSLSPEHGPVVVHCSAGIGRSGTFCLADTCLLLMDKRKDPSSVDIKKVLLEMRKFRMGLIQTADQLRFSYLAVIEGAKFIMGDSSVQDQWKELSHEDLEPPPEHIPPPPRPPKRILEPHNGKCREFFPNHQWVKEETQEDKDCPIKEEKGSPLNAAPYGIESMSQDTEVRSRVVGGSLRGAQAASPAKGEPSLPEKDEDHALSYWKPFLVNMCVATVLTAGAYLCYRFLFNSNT
Description: (§1) The selectivity and potency of a small molecule PTPN2 inhibitor as provided herein (e.g., a derivative of Formula I, II, III, IV; or sub-formulae thereof) against one or more protein tyrosine phosphatase (PTP) enzymes, and specifically against PTPN2, can be assessed in various ways. The one or more PTP enzymes comprise Mycobacterium protein tyrosine phosphatase A (mPTPA), Mycobacterium protein tyrosine phosphatase B (mPTPB), PTPN1 (i.e., PTP1B), PTPN2 (i.e., TC-PTP), SHP-1, SHP-2, FAP-1, Meg2, HePTP, Laforin, VHX, VHR, LMWPTP, Cdcl4A, LAR, CD45, PTPRG, a fragment thereof, a variant thereof, and a combination thereof. Selectivity and potency of a small molecule PTPN2 inhibitor is evaluated using a PTP activity inhibition assay. The assay is performed using a buffer comprising 50 millimolar (mM) Bis-Tris (pH=6.3), 2 mM EDTA, and 5 mM N,N′-dimethyl-N,N′-bis(mercaptoacetyl)hydrazine (DMH). The assay is performed using a phosphated substrate, e.g., 10 mM fluorescein diphosphate (FDP) that is stored at −20° C. Alternatively or in addition to, the assay is performed using 10 mM DiFMUP as a phosphated substrate. Each PTP enzyme is diluted in an enzyme dilution buffer comprising 50 mM Bis-Tris (pH=6.3), 2 mM EDTA, 5 mM DMH, 20% (vol./vol.) glycerol, and 0.01% (vol./vol.) Triton X-100.
(§2) The assay is carried out at room temperature in 96 well plates. A reaction mixture of 170 microliter (μL) of the assay buffer comprising 10 μM FDP or DiFMIUP is added to each well. A 10 μL volume of (i) a compound disclosed herein (e.g., PTPN2 inhibitor) dissolved in DMSO at one of 10 concentrations from a serial dilution or (ii) DMSO alone for control is added to each well. The reaction is initiated by adding 20 μL of a PTP enzyme (e.g., PTPN2) that is diluted in the enzyme dilution buffer. The phosphatase activity of the PTP enzyme is assessed by monitoring appearance of a fluorescent product (e.g., fluorescein monophosphate (FMP) from FDP, or 6,8-difluoro-7-hydroxyl-4-coumarin (DiFMU) from DiFMUP) continuously for about 15 to 30 minutes, using the SpectraMax® Gemini™ XPS Microplate Spectrofluorometer (Molecular Devices®) with excitation of 440 nm and emission at 530 nm (cutoff filter at 525 nm) for FMP and excitation at 360 nm and emission at 450 nm (cutoff filter at 435 nm) for DiFMU. The rate (e.g., the initial rate) of FMP or DiFMU formation is plotted against the concentration of the small molecule PTPN2 inhibitor, and the data is fitted (e.g., using a 4-parameter equation) to determine the inflection point of the fit as the IC50 of the small molecule PTPN2 inhibitor for a specific enzyme. Table 6 summarizes the IC50 values of compounds disclosed herein against PTPN2 and PTPN1.

PTPN2 = molecular target: T2, PTPN2 (Homo sapiens, UniProt P17706); assay: Phosphatase activity assay (Bio-Biochem-DiFMUP), PTPN2; assay type: biochemical; conditions: DiFMUP substrate, room temperature
T2 sequence (P17706 1-415): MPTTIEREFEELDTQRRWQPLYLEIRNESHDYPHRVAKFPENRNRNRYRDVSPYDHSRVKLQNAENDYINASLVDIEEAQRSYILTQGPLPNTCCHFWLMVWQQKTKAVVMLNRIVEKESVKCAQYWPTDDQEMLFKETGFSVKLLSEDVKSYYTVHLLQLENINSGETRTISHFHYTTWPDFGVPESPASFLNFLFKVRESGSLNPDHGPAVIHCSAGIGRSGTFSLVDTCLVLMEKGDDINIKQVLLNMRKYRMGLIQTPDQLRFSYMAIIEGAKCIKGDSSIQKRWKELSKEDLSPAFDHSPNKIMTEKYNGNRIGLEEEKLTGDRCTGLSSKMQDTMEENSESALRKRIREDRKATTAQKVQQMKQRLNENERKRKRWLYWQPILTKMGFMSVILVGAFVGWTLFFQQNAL
Description: as §1, §2

Row | SMILES | IC50 (PTP1B) [nM] | IC50 (PTPN2) [nM]
1 | Cn1c(=O)c(NCCC#N)cc2cc(N3CC(=O)NS3(=O)=O)c(O)cc21 [Compound 164] | ≤ 1000 | ≤ 1000
2 | CC(C)CCN1Cc2cc(C3=CC(=O)NS3(=O)=O)c(O)cc2CC1=O [Compound 110] | 1000 to 10000 | 1000 to 10000
3 | CC(C)CCNc1ccc2cc(O)c(C3=CC(=O)NS3(=O)=O)cc2n1 [Compound 106, 5-(6-hydroxy-2-(isopentylamino)quinolin-7-yl)isothiazol-3(2H)-one 1,1-dioxide] | ≤ 1000 | 1000 to 10000
4 | CC(C)CN(C)Cc1cc(=O)n2cc(O)c(C3=CC(=O)NS3(=O)=O)cc2c1 [Compound 122] | > 10000 | > 10000
5 | CC(C)CCNc1ccc2cc(O)c(C3CC(=O)NS3(=O)=O)cc2n1 (stereo not drawn) [Compound 109] | 1000 to 10000 | > 10000
6 | COc1ccc2cc(O)c(N3CC(=O)NS3(=O)=O)cc2n1 [Compound 124] | ≤ 1000 | ≤ 1000
7 | Cn1c(=O)c(NCCc2ccccc2)cc2cc(N3CC(=O)NS3(=O)=O)c(O)cc21 [Compound 123, 5-(7-hydroxy-1-methyl-2-oxo-3-(phenethylamino)-1,2-dihydroquinolin-6-yl)-1,2,5-thiadiazolidin-3-one 1,1-dioxide] | ≤ 1000 | ≤ 1000
8 | COc1cc2c(cc1N1CC(=O)NS1(=O)=O)C(=O)N(C)CC2 [Compound 101] | > 10000 | > 10000
9 | O=C1CN(c2cc3nc(OCCN4CCOCC4)ccc3cc2O)S(=O)(=O)N1 [Compound 131] | > 10000 | > 10000
10 | CC(C)CCOc1cc2cc(N3CC(=O)NS3(=O)=O)c(O)cc2n(C)c1=O [Compound 160] | ≤ 1000 | ≤ 1000
11 | O=C1CN(c2cc3nc(NCCc4ccccc4)ccc3cc2O)S(=O)(=O)N1 [Compound 118] | ≤ 1000 | ≤ 1000
12 | CC(C)CCn1ccc2cc(O)c(N3CC(=O)NS3(=O)=O)c(F)c2c1=O [Compound 157] | 1000 to 10000 | 1000 to 10000
13 | C[C@@H](Nc1cc2cc(N3CC(=O)NS3(=O)=O)c(O)cc2n(C)c1=O)c1ccccc1 [Compound 162] | ≤ 1000 | ≤ 1000
14 | COC(=O)c1cc2cc(N3CC(=O)NS3(=O)=O)c(O)cc2s1 [Compound 103] | 1000 to 10000 | 1000 to 10000
15 | CC(C)CCN1Cc2cc(C3=CC(=O)NS3(=O)=O)c(O)cc2N(C)C1=O [Compound 108, 5-(7-hydroxy-3-isopentyl-1-methyl-2-oxo-1,2,3,4-tetrahydroquinazolin-6-yl)isothiazol-3(2H)-one 1,1-dioxide] | > 10000 | > 10000
16 | O=C1C=C(c2cc3cc(-c4cccnc4)cnc3cc2O)S(=O)(=O)N1 [Compound 115, 5-(7-hydroxy-3-(pyridin-3-yl)quinolin-6-yl)isothiazol-3(2H)-one 1,1-dioxide] | 1000 to 10000 | > 10000
17 | COc1cc2c(F)c(N3CC(=O)NS3(=O)=O)c(O)cc2n(C)c1=O [Compound 146] | ≤ 1000 | ≤ 1000
18 | Cn1c(=O)c(NCCN2CCOCC2)cc2cc(N3CC(=O)NS3(=O)=O)c(O)cc21 [Compound 127] | ≤ 1000 | ≤ 1000
19 | O=C1CN(c2cc3nc(C4CCOC4)ccc3cc2O)S(=O)(=O)N1 (stereo not drawn) [Compound 147] | ≤ 1000 | 1000 to 10000
20 | CC(C)CCNC(=O)c1cc2cc(N3CC(=O)NS3(=O)=O)c(O)cc2s1 [Compound 132] | ≤ 1000 | ≤ 1000
21 | N#Cc1cccc(CCOc2ccc3cc(O)c(N4CC(=O)NS4(=O)=O)cc3n2)c1 [Compound 159] | ≤ 1000 | ≤ 1000
22 | CC(C)CCNc1cnc2cc(O)c(N3CC(=O)NS3(=O)=O)cc2c1 [Compound 142, 5-(7-hydroxy-3-(isopentylamino)quinolin-6-yl)-1,2,5-thiadiazolidin-3-one 1,1-dioxide] | ≤ 1000 | ≤ 1000
23 | O=C1C=C(c2cc3cc(Cl)cnc3cc2O)S(=O)(=O)N1 [Compound 107] | 1000 to 10000 | > 10000
24 | CN1CCc2cc(O)c(N3CC(=O)NS3(=O)=O)cc2C1=O [Compound 104] | > 10000 | > 10000
25 | CC(C)Oc1cc2c(F)c(N3CC(=O)NS3(=O)=O)c(O)cc2n(C)c1=O [Compound 156] | ≤ 1000 | ≤ 1000
26 | CCN1CCC(Nc2cc3cc(N4CC(=O)NS4(=O)=O)c(O)cc3n(C)c2=O)CC1 [Compound 166] | 1000 to 10000 | 1000 to 10000

Next, values leading:

Row | IC50 (PTP1B) [nM] | IC50 (PTPN2) [nM] | SMILES
27 | ≤ 1000 | ≤ 1000 | CC(C)OCCNc1cc2cc(N3CC(=O)NS3(=O)=O)c(O)cc2n(C)c1=O [Compound 195]
28 | ≤ 1000 | ≤ 1000 | CC(C)CCOc1ccc2cc(O)c(N3CC(=O)NS3(=O)=O)cc2n1 [Compound 182]
29 | ≤ 1000 | 1000 to 10000 | Cn1c(=O)c(NCCC2CC2)cc2cc(N3CC(=O)NS3(=O)=O)c(O)cc21 [Compound 168]
30 | ≤ 1000 | ≤ 1000 | Cn1c(=O)c(NCCC2CCC(F)(F)CC2)cc2cc(N3CC(=O)NS3(=O)=O)c(O)cc21 [Compound 201]
31 | ≤ 1000 | ≤ 1000 | CC(C)CC#Cc1cc2cc(N3CC(=O)NS3(=O)=O)c(O)cc2n(C)c1=O [Compound 181]
32 | ≤ 1000 | 1000 to 10000 | CCN1CC(Nc2cc3cc(N4CC(=O)NS4(=O)=O)c(O)cc3n(C)c2=O)C1 [Compound 174]
33 | ≤ 1000 | ≤ 1000 | O=C1CN(c2cc3nc(-c4cnn(CC5CC5)c4)ccc3cc2O)S(=O)(=O)N1 [Compound 188]
34 | > 10000 | > 10000 | CC(C)CCn1ccc2cc(O)c(N3CC(=O)NS3(=O)=O)cc2c1=O [Compound 199]
35 | 1000 to 10000 | 1000 to 10000 | CC(C)CCNc1cc2cc(N3C(C)C(=O)NS3(=O)=O)c(O)cc2n(C)c1=O (stereo not drawn) [Compound 203]
36 | ≤ 1000 | ≤ 1000 | O=C1CN(c2c(O)cc3sc(C(=O)NCCc4ccccc4)cc3c2F)S(=O)(=O)N1 [Compound 198]
37 | ≤ 1000 | ≤ 1000 | Cn1c(=O)c(NCCC2CCCC2)cc2c(F)c(N3CC(=O)NS3(=O)=O)c(O)cc21 [Compound 179]
38 | ≤ 1000 | ≤ 1000 | O=C1CN(c2cc3nc(OCCc4ccccc4)ccc3cc2O)S(=O)(=O)N1 [Compound 167]
39 | ≤ 1000 | ≤ 1000 | N#CCCCOc1ccc2cc(O)c(N3CC(=O)NS3(=O)=O)cc2n1 [Compound 175]
40 | ≤ 1000 | ≤ 1000 | Cn1c(=O)c(NC2CCN(S(C)(=O)=O)C2)cc2cc(N3CC(=O)NS3(=O)=O)c(O)cc21 (stereo not drawn) [Compound 191]
41 | ≤ 1000 | ≤ 1000 | Cn1c(=O)c(NCc2ccccc2)cc2c(F)c(N3CC(=O)NS3(=O)=O)c(O)cc21 [Compound 180]
42 | 1000 to 10000 | 1000 to 10000 | Cn1c(=O)c(N2CCCCC2)cc2cc(N3CC(=O)NS3(=O)=O)c(O)cc21 [Compound 169]
